In general, CC50 refers to the concentration that lowers cell viability or growth by half. A higher CC50 goes with lower toxicity to the cells.

The values that follow come from US5466450A, “Antiviral antibiotic BU-4224V” (priority 1993, dated 1995).

Type in all cases: cell-based
The test system of data set [1] is herpes simplex virus type 1 (KOS strain). Description: Dye uptake assay, HSV-1 infection in Vero cells. The following applies: Human alphaherpesvirus 1, HSV-1, Vero cells, 72 hours, read-out: ID50 (the source's name). As to the method:
(§1) Antiviral activity for each component of BU-4224V was evaluated by the dye uptake and the plaque reduction assay using herpes simplex virus type 1 (KOS strain) infection in Vero cells. In the dye uptake assay, 200 μl of the Vero cell suspension containing 1.6×10^4 cells was poured into each well of 96-well microplates, and then 50 μl of medium containing a test compound at various concentrations was added to each well. The viral suspension (50 μl ) containing approximately 30X TCID50 was inoculated to each well. For cytotoxicity tests, the same set of wells without viruses were prepared. After incubation at 37° C. for 72 hours under the humidified 5% CO2 -95% air environment, the degree of inhibition of the virus-induced cytopathic effect and the drug-induced cytotoxicity were determined by means of the uptake of neutral red. […] Acyclovir was used as a reference compound of anti-HSV activity. The antiviral activity of BU-4224V was also evaluated by the conventional plaque reduction assay method using a 24-well microplate.

The nature of data set [2]: in vitro. The following applies: monkey, vero cells. As to the method:
as §1

The test system of data set [3] is herpes simplex virus type 1 (KOS strain). Briefly: Plaque reduction assay, HSV-1 infection in Vero cells. The conditions noted are these: Human alphaherpesvirus 1, HSV-1, Vero cells, read-out: ID50 (the source's name). As to the method:
as §1
Background: Plaques are areas of infected cells; plaque reduction assays count them against a control.

A short description of data set [4]: Minimal toxic dose in the plaque reduction assay. The conditions noted are these: monkey, HSV-Vero cells, read-out: MTD (minimal toxic dose). As to the method: as §1

≈ marks a conversion by molar mass, not a printed value.

For the molecule `Nc1nc2c(ncn2COCCO)c(=O)[nH]1` [Acyclovir], the IC50 in data set [1] worked out at 0.09 µg/mL (≈ 0.4 µM); in data set [3], 0.27 µg/mL (≈ 1.2 µM). Besides, the 50% cytotoxic concentration (CC50) at 72 h in data set [2] is more than 100 µg/mL. Moreover, the MCC in data set [4] was more than 100 µg/mL.
